We go through three compounds from US11203599B2, “Solid forms of an antiviral compound” (Gilead Pharmasset LLC, priority 2014, dated 2021).

Structures can show the parent of a compound that is named as a salt.

What all share (type): physicochemical
Data set [1] can be described thus: Stable form screen of Compound I bis-HCl: solubility in solvents. The following applies: thermodynamic from solid. The protocol:
(§1) The stable form screen of Compound I bis-HCl was performed using 20 solvents (5-10 volumes) in an attempt to discover all crystalline forms, as summarized in Table 2. Four crystalline solvates were discovered in the slurries, which utilized alcohols such as methanol, ethanol and 1-propanol. With ethanol, the initial precipitation was Compound I bis-HCl Form III solids; after stirring for two weeks, the solids became Compound I bis-HCl Form V. The shapes of these crystals appeared as needles, shown in FIG. 47. After vacuum drying, these solvates lost solvents easily and changed to Compound I bis-HCl Form VI. […] For example, Compound I bis-HCl Form VI contains 8.8% water by KF after drying the methanol solvate and contains 5.2% water after drying the ethanol solvate. Each form was characterized by XRPD, DSC and TGA (FIGS. 4-19). TGA and DSC analysis were conducted after the samples were dried at room temperature in vacuum oven for 1 hour.

The nature of data set [2]: Dynamic vapor sorption (DVS).
The nature of data set [3]: Water uptake of the desolvated form in contact with air (water by KF). On the procedure: as §1

`COC[C@H]1C[C@@H](c2ncc(-c3ccc4c(c3)COc3cc5c(ccc6nc([C@@H]7CC[C@H](C)N7C(=O)[C@@H](NC(=O)OC)C(C)C)[nH]c65)cc3-4)[nH]2)N(C(=O)[C@H](NC(=O)OC)c2ccccc2)C1` [Compound I bis-HCl, methyl {(2S)-1-[(2S,5 S)-2-(9-{2-[(2S,4S)-1-{(2R)-2-[(methoxycarbonyl)amino]-2-phenylacetyl}-4-(methoxymethyl)pyrrolidin-2-yl]-1H-imidazol-5-yl}-1,11-dihydroisochromeno[4′,3′:6,7]naphtho[1,2-d]imidazol-2-yl)-5-methylpyrrolidin-1-yl]-3-methyl-1-oxobutan-2-yl}carbamate bis-hydrochloride]: the solubility (in general, the dissolved amount per volume that the medium holds) in data set [1] (ethanol, organic solvent or mixture, solvent EtOH, initial Form III, final Form V) was 9000 µg/mL; in data set [1] (ethanol/water, aqueous with cosolvent or surfactant or cyclodextrin, solvent EtOH/water, Solution) it was over 20000 µg/mL; in data set [1] (methanol, organic solvent or mixture, solvent MeOH, final form Compound I bis-HCl Form II), 50000 µg/mL; in data set [1] (organic solvent or mixture, solvent 1-Propanol, final form Compound I bis-HCl Form IV) it was 9000 µg/mL; in data set [1] (organic solvent or mixture, solvent 2-Butanol, Solution), over 50000 µg/mL; in data set [1] (organic solvent or mixture, solvent Acetone, Mesophase), 6000 µg/mL. Moreover, the solubility is over 20000 µg/mL in data set [1] (organic solvent or mixture, solvent DCM, Solution); under 1000 µg/mL in data set [1] (organic solvent or mixture, solvent Ethyl acetate, Mesophase); under 1000 µg/mL in data set [1] (organic solvent or mixture, solvent IPAc, Mesophase); under 1000 µg/mL in data set [1] (organic solvent or mixture, solvent MIBK, Mesophase); under 1000 µg/mL in data set [1] (organic solvent or mixture, solvent MTBE, Amorphous); under 1000 µg/mL in data set [1] (organic solvent or mixture, solvent Toluene, Mesophase). Moreover, the solubility was under 1000 µg/mL in data set [1] (organic solvent or mixture, solvent heptane, Amorphous) and under 1000 µg/mL in data set [1] (solvent Water, final form Amorphous).
Regarding `COC[C@H]1C[C@@H](c2ncc(-c3ccc4c(c3)COc3cc5c(ccc6nc([C@@H]7CC[C@H](C)N7C(=O)[C@@H](NC(=O)OC)C(C)C)[nH]c65)cc3-4)[nH]2)N(C(=O)[C@H](NC(=O)OC)c2ccccc2)C1` [Compound I bis-HCl Form VI, methyl {(2S)-1-[(2S,5S)-2-(9-{2-[(2S,4S)-1-{(2R)-2-[(methoxycarbonyl)amino]-2-phenylacetyl}-4-(methoxymethyl)pyrrolidin-2-yl]-1H-imidazol-5-yl}-1,11-dihydroisochromeno[4′,3′:6,7]naphtho[1,2-d]imidazol-2-yl)-5-methylpyrrolidin-1-yl]-3-methyl-1-oxobutan-2-yl}carbamate bis-hydrochloride], the “Hygroscopicity by DVS analysis” value in data set [2] (FIG. 19) is on record as “hygroscopic”. Further, the results for the “Water by KF” value in data set [3] (after drying the ethanol solvate) and in data set [3] (after drying the methanol solvate) were 5.2% and 8.8%, respectively. Moreover, in data set [3] (desolvated form), the “Water absorption in contact with air” value is given as “absorbs water quickly”.
For `COC[C@H]1C[C@@H](c2ncc(-c3ccc4c(c3)COc3cc5c(ccc6nc([C@@H]7CC[C@H](C)N7C(=O)[C@@H](NC(=O)OC)C(C)C)[nH]c65)cc3-4)[nH]2)N(C(=O)[C@H](NC(=O)OC)c2ccccc2)C1` [Compound I D-tartrate Form II, methyl {(2S)-1-[(2S,5S)-2-(9-{2-[(2S,4S)-1-{(2R)-2-[(methoxycarbonyl)amino]-2-phenylacetyl}-4-(methoxymethyl)pyrrolidin-2-yl]-1H-imidazol-5-yl}-1,11-dihydroisochromeno[4′,3′:6,7]naphtho[1,2-d]imidazol-2-yl)-5-methylpyrrolidin-1-yl]-3-methyl-1-oxobutan-2-yl}carbamate D-tartrate], in data set [2] (between about 10-50% RH, FIG. 53), the “Moisture uptake in DVS” value was “about 7%”.
